# Data reported in paper PMC8800111 (The Journal of Biological Chemistry, 2021).
# How the values were obtained:
# Format in all cases: cell-based
# [1] = molecular target: proteins of U3A human fibrosarcoma cells (4462 proteins detected) (Homo sapiens, UniProt O00231); details: protein PSMD11; U3A cells
# [2] = molecular target: proteins of U3A human fibrosarcoma cells (4462 proteins detected) (Homo sapiens, UniProt O60291); details: protein MGRN1; U3A, 10 μM, 2 h
# [3] = molecular target: proteins of U3A human fibrosarcoma cells (4462 proteins detected) (Homo sapiens, UniProt O60885); details: protein BRD4; soluble abundance after heat, U3A cells
# [4] = molecular target: proteins of U3A human fibrosarcoma cells (4462 proteins detected) (Homo sapiens, UniProt O75533); details: protein SF3B1; U3A cells
# Sequence of proteins of U3A human fibrosarcoma cells (4462 proteins detected) (Homo sapiens, UniProt O75533) (O75533 whole entry): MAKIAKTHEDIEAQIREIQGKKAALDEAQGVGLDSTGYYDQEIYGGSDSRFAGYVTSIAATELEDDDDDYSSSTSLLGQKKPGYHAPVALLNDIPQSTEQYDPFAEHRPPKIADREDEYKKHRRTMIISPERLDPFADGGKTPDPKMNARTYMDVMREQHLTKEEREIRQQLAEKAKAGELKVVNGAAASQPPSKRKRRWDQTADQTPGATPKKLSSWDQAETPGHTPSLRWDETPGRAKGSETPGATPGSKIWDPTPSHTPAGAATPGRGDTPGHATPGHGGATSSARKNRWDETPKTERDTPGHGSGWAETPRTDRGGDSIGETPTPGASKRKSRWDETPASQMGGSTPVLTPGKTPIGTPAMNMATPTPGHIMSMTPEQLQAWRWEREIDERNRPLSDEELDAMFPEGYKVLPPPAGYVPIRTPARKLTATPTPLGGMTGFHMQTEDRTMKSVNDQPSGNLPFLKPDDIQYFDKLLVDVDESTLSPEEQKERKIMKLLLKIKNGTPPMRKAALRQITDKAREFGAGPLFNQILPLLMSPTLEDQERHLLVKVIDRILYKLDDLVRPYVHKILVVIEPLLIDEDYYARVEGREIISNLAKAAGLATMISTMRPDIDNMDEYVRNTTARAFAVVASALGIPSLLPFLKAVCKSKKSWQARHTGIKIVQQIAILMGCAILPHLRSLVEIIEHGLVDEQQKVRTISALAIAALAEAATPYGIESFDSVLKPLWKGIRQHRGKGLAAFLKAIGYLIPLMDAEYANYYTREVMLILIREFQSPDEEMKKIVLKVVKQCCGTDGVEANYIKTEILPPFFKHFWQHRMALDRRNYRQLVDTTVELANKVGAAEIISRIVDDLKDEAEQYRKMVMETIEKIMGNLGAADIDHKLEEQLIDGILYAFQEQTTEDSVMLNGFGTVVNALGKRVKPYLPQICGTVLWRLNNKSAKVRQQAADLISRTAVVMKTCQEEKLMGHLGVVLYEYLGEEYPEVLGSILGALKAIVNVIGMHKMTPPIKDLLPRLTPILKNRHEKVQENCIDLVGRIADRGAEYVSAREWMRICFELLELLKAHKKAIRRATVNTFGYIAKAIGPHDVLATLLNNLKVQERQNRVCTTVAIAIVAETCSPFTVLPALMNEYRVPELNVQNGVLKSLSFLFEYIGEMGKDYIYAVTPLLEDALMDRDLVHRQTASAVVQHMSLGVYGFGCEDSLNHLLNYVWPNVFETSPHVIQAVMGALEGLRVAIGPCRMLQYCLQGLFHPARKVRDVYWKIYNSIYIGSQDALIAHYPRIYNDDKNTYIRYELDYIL
# [5] = molecular target: proteins of U3A human fibrosarcoma cells (4462 proteins detected) (Homo sapiens, UniProt O75643); details: protein SNRNP200; soluble abundance after heat, U3A cells
# [6] = molecular target: proteins of U3A human fibrosarcoma cells (4462 proteins detected) (Homo sapiens, UniProt O76003); details: protein GLRX3; U3A cells
# [7] = molecular target: proteins of U3A human fibrosarcoma cells (4462 proteins detected) (Homo sapiens, UniProt P00374); details: 10 μM, 2 h
# Sequence of proteins of U3A human fibrosarcoma cells (4462 proteins detected) (Homo sapiens, UniProt P00374) (P00374 whole entry): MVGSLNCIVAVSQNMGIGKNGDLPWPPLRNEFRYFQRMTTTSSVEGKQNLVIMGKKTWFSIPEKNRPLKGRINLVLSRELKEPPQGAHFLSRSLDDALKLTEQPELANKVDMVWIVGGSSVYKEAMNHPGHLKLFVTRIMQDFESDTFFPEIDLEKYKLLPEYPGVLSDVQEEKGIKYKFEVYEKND
# [8] = molecular target: proteins of U3A human fibrosarcoma cells (4462 proteins detected) (Homo sapiens, UniProt P14649); details: protein MYL6B, U3A cells
# [9] = molecular target: proteins of U3A human fibrosarcoma cells (4462 proteins detected) (Homo sapiens, UniProt P25440); details: protein BRD2; soluble abundance after heat, U3A cells
# [10] = molecular target: proteins of U3A human fibrosarcoma cells (4462 proteins detected) (Homo sapiens, UniProt P32320); details: protein CDA, U3A cells
# [11] = molecular target: proteins of U3A human fibrosarcoma cells (4462 proteins detected) (Homo sapiens, UniProt P35606); details: protein COPB2; soluble abundance after heat, U3A cells
# Sequence of proteins of U3A human fibrosarcoma cells (4462 proteins detected) (Homo sapiens, UniProt P35606) (P35606 whole entry): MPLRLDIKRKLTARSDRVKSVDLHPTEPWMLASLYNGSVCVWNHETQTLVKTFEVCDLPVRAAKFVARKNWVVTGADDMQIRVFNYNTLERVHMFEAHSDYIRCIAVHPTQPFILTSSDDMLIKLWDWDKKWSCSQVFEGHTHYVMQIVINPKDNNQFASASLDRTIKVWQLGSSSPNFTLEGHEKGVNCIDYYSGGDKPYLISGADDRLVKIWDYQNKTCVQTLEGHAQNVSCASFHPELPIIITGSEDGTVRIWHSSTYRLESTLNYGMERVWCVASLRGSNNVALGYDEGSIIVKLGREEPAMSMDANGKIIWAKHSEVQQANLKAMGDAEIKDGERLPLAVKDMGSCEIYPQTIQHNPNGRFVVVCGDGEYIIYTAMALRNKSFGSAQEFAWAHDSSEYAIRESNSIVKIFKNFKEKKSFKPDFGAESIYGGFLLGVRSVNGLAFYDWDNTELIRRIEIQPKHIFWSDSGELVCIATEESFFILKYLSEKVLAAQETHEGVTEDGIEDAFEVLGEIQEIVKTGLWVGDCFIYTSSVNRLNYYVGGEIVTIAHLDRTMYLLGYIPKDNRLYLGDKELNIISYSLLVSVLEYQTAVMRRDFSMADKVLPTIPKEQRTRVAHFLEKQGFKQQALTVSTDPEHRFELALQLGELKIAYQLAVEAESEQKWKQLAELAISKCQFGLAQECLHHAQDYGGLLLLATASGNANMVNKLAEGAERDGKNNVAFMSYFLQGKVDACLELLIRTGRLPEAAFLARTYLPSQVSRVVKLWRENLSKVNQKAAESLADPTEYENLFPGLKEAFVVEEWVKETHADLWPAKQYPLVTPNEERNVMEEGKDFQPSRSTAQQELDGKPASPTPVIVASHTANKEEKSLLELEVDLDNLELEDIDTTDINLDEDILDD
# [12] = molecular target: proteins of U3A human fibrosarcoma cells (4462 proteins detected) (Homo sapiens, UniProt P43243); details: protein MATR3; soluble abundance after heat, U3A cells
# [13] = molecular target: proteins of U3A human fibrosarcoma cells (4462 proteins detected) (Homo sapiens, UniProt P46087); details: protein NOP2; U3A cells
# [14] = molecular target: proteins of U3A human fibrosarcoma cells (4462 proteins detected) (Homo sapiens, UniProt P50402); details: protein EMD; soluble abundance after heat, U3A cells
# [15] = molecular target: proteins of U3A human fibrosarcoma cells (4462 proteins detected) (Homo sapiens, UniProt Q14669); details: protein TRIP12, U3A cells
# [16] = molecular target: proteins of U3A human fibrosarcoma cells (4462 proteins detected) (Homo sapiens, UniProt Q16610); details: protein ECM1; U3A, 10 μM, 2 h
# [17] = molecular target: proteins of U3A human fibrosarcoma cells (4462 proteins detected) (Homo sapiens, UniProt Q49AR2); details: protein C5orf22, U3A cells
# [18] = molecular target: proteins of U3A human fibrosarcoma cells (4462 proteins detected) (Homo sapiens, UniProt Q6PD74); details: protein AAGAB; U3A cells
# [19] = molecular target: proteins of U3A human fibrosarcoma cells (4462 proteins detected) (Homo sapiens, UniProt Q8NI22); details: protein MCFD2, U3A cells
# Sequence of proteins of U3A human fibrosarcoma cells (4462 proteins detected) (Homo sapiens, UniProt Q8NI22) (Q8NI22 27-146): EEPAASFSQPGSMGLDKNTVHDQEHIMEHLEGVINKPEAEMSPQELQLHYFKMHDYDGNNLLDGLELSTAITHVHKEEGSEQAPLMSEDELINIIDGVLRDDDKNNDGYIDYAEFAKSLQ
# [20] = molecular target: proteins of U3A human fibrosarcoma cells (4462 proteins detected) (Homo sapiens, UniProt Q8TDN6); details: protein BRIX1; U3A cells
# [21] = molecular target: proteins of U3A human fibrosarcoma cells (4462 proteins detected) (Homo sapiens, UniProt Q92973); details: protein TNPO1; U3A cells
# [22] = molecular target: proteins of U3A human fibrosarcoma cells (4462 proteins detected) (Homo sapiens, UniProt Q969Z0); details: protein TBRG4; U3A cells
# Sequence of proteins of U3A human fibrosarcoma cells (4462 proteins detected) (Homo sapiens, UniProt Q969Z0) (Q969Z0 108-631): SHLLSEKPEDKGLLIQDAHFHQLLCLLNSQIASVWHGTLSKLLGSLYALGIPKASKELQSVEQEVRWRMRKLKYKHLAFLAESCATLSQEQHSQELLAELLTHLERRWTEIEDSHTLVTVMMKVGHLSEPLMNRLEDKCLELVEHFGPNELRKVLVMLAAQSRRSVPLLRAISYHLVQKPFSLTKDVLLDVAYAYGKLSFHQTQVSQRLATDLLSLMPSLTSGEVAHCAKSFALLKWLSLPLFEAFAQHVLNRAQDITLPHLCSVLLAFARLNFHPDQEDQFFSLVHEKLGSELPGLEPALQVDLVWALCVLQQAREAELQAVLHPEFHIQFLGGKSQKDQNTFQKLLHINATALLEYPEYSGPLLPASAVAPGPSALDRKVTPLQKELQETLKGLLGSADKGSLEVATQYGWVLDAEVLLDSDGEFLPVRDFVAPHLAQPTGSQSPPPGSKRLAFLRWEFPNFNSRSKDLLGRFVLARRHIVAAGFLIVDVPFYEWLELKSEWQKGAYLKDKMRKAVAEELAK
# [23] = molecular target: proteins of U3A human fibrosarcoma cells (4462 proteins detected) (Homo sapiens, UniProt Q9H9Q2); details: protein COPS7B; U3A cells
# [24] = molecular target: proteins of U3A human fibrosarcoma cells (4462 proteins detected) (Homo sapiens, UniProt Q9HCD5); details: protein NCOA5; U3A cells
# [25] = molecular target: proteins of U3A human fibrosarcoma cells (4462 proteins detected) (Homo sapiens, UniProt Q9HCJ0); details: protein TNRC6C, U3A cells
# Sequence of proteins of U3A human fibrosarcoma cells (4462 proteins detected) (Homo sapiens, UniProt Q9HCJ0) (Q9HCJ0 whole entry): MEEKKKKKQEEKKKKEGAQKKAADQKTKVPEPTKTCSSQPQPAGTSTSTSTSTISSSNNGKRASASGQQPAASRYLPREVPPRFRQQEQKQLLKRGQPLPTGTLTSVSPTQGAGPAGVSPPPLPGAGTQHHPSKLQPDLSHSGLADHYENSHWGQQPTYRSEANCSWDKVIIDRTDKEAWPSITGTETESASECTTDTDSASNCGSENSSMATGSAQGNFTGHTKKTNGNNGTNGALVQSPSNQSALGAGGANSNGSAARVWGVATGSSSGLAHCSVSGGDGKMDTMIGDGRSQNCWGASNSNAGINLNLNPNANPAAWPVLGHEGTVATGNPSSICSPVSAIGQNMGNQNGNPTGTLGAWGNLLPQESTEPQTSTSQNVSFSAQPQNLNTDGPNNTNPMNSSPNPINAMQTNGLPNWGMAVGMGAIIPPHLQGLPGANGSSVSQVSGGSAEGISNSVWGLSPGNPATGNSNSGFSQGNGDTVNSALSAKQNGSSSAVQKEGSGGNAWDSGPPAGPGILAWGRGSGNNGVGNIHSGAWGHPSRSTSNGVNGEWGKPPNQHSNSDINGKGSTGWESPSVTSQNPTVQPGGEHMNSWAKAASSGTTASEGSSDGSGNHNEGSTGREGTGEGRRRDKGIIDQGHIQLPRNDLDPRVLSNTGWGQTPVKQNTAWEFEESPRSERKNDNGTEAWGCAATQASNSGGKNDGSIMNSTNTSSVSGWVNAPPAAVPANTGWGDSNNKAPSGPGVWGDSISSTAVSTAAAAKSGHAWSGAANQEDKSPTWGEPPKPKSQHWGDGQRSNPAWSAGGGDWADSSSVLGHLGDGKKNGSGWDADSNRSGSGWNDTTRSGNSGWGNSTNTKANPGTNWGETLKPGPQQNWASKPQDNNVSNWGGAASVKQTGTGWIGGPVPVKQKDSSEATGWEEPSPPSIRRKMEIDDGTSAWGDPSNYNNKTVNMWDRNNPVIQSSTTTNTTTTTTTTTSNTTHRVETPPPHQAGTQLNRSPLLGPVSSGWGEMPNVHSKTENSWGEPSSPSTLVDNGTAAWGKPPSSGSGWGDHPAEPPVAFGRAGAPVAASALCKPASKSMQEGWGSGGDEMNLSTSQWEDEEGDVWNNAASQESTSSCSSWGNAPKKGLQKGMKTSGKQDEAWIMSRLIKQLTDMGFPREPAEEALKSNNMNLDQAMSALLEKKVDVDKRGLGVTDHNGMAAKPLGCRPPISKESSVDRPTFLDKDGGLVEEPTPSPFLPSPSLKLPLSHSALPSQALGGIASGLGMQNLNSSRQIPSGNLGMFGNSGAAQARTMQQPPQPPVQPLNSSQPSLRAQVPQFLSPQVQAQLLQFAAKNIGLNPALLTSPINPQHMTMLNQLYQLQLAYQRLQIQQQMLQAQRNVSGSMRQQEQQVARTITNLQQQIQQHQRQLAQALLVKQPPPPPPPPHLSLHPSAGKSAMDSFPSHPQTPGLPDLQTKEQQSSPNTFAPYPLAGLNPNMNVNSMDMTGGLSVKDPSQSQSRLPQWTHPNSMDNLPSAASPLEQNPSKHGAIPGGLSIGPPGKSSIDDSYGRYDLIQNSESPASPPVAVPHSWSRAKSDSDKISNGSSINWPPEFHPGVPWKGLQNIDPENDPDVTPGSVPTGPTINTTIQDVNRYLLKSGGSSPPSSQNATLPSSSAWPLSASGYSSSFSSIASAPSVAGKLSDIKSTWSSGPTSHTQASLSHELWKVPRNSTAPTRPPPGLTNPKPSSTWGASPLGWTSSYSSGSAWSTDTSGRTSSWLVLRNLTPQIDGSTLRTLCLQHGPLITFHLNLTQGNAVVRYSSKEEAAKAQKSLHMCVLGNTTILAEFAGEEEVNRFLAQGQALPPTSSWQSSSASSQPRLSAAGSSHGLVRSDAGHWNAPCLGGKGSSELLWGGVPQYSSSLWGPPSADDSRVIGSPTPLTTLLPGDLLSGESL
# [26] = molecular target: proteins of U3A human fibrosarcoma cells (4462 proteins detected) (Homo sapiens, UniProt Q9P0K7); details: protein RAI14; soluble abundance after heat, U3A cells
# [27] = molecular target: proteins of U3A human fibrosarcoma cells (4462 proteins detected) (Homo sapiens, UniProt Q9UHA3); details: protein RSL24D1; U3A cells
# [28] = molecular target: proteins of U3A human fibrosarcoma cells (4462 proteins detected) (Homo sapiens, UniProt Q9UKV5); details: protein AMFR; U3A cells
# [29] = molecular target: proteins of U3A human fibrosarcoma cells (4462 proteins detected) (Homo sapiens, UniProt Q9Y2K1); details: protein ZBTB1; U3A cells
# [30] = molecular target: proteins of U3A human fibrosarcoma cells (4462 proteins detected) (Homo sapiens, UniProt Q9Y3C8); details: protein UFC1; U3A cells
smiles,measurement,setting,value
CCc1nc(N)nc(N)c1-c1ccc(Cl)cc1 [pyrimethamine],Log2 (PYR/DMSO),[1],0.17
same,"Log2 (PYR/DMSO), MGRN1",[2],-0.25
same,Log2 (PYR/DMSO),[3],0.14
same,Log2 (PYR/DMSO),[4],0.16
same,Log2 (PYR/DMSO),[5],0.15
same,Log2 (PYR/DMSO),[6],0.16
same,increased abundance of DHFR in the soluble fraction,"[7]; U3A cells, vs vehicle",1.7 fold
same,"Log2 (PYR/DMSO), DHFR","[7]; protein DHFR, U3A",0.80
same,Log2 (PYR/DMSO),[8],-0.04
same,Log2 (PYR/DMSO),[9],0.14
same,Log2 (PYR/DMSO),[10],-0.04
same,Log2 (PYR/DMSO),[11],0.15
same,Log2 (PYR/DMSO),[12],0.14
same,Log2 (PYR/DMSO),[13],0.16
same,Log2 (PYR/DMSO),[14],0.15
same,Log2 (PYR/DMSO),[15],-0.04
same,"Log2 (PYR/DMSO), ECM1",[16],-0.14
same,Log2 (PYR/DMSO),[17],-0.04
same,Log2 (PYR/DMSO),[18],0.18
same,Log2 (PYR/DMSO),[19],-0.05
same,Log2 (PYR/DMSO),[20],0.20
same,Log2 (PYR/DMSO),[21],0.22
same,Log2 (PYR/DMSO),[22],0.19
same,Log2 (PYR/DMSO),[23],0.19
same,Log2 (PYR/DMSO),[24],0.17
same,Log2 (PYR/DMSO),[25],-0.04
same,Log2 (PYR/DMSO),[26],0.15
same,Log2 (PYR/DMSO),[27],0.17
same,Log2 (PYR/DMSO),[28],0.16
same,Log2 (PYR/DMSO),[29],0.22
same,Log2 (PYR/DMSO),[30],0.16
